For data set [1], the target named is T1, 11-beta-hydroxysteroid dehydrogenase type 2 (Homo sapiens) (UniProt P80365).
T1 sequence (whole entry): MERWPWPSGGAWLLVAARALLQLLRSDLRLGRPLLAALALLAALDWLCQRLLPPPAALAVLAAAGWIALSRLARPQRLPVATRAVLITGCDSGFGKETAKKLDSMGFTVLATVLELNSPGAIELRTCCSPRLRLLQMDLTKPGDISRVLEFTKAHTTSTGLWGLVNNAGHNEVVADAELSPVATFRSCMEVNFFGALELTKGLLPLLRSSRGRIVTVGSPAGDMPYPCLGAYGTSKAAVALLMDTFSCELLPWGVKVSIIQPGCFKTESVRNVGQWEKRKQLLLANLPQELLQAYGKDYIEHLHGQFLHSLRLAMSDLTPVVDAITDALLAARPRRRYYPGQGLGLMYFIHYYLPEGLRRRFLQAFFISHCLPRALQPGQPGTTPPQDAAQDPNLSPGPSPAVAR
Description: Inhibition of human 11beta-HSD2 overexpressed in HEK293 cells at 20 uM by HTRF cortisol assay. Type of data set: cell-based. (TR-FRET usually uses a lanthanide donor and a delayed reading to cut background.)

Data set [2] in a line: Half life in rat. In kind it is ADME, organism-based. The settings on record: in vivo.
Data set [3] concerns the target 11-beta-hydroxysteroid dehydrogenase 1 (Mus musculus, UniProt P50172). Description: Inhibition of 11beta-HSD1 in mouse C2C12 cells by HTRF cortisol assay. Type of data set: cell-based.
The target in data set [4] is Voltage-gated inwardly rectifying potassium channel KCNH2 (Homo sapiens, UniProt Q12809). The data set can be described thus: Inhibition of human ERG.
The nature of data set [5]: Cmax in rat. The conditions noted are these: in vivo. In kind it is ADME, organism-based.
Data set [6] in a line: Oral bioavailability in rat. Type of data set: ADME, organism-based. The conditions noted are these: in vivo.
A further data set is filed under the species Rattus norvegicus. Description: Clearance in rat. In kind it is ADME, organism-based. The conditions noted are these: in vivo.
A short description of data set [7]: Half life in human liver microsomes. Type of data set: ADME, Microsome. (Liver microsomes are vesicles of endoplasmic reticulum, rich in cytochrome P450 enzymes.)
The target in data set [8] is 11-beta-hydroxysteroid dehydrogenase 1 (Homo sapiens, UniProt P28845). The data set can be described thus: Inhibition of 11beta-HSD1 in human microsomes by HTRF cortisol assay. The arrangement: species or system Microsome.

pIC50: −log10 of the molar value.

As a reminder, the inhibition is the drop in the measured response relative to a control, in per cent. Low readings indicate little suppression, high ones strong suppression. A word on the half-life: it is how long it takes for the measured level to halve. Broadly, the pIC50 is −log10 of the IC50, conventionally taken in molar units. Low readings indicate a high IC50, high ones a low IC50. The term Cmax denotes the maximum level reached in the sampled fluid or tissue. What is called bioavailability is dose-corrected exposure relative to a reference, in per cent. Low values mean poor availability, high ones good availability.

Chain of 11-beta-hydroxysteroid dehydrogenase 1 (Homo sapiens, UniProt P28845) (P28845 whole entry): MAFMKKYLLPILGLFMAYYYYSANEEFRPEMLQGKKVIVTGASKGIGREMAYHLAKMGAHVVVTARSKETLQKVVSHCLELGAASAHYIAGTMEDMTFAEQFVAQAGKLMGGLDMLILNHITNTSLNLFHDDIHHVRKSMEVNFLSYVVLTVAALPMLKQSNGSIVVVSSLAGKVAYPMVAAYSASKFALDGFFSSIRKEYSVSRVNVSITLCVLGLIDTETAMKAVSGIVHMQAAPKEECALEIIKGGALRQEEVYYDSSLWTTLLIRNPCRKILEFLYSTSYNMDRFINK
Chain of 11-beta-hydroxysteroid dehydrogenase 1 (Mus musculus, UniProt P50172) (P50172 whole entry): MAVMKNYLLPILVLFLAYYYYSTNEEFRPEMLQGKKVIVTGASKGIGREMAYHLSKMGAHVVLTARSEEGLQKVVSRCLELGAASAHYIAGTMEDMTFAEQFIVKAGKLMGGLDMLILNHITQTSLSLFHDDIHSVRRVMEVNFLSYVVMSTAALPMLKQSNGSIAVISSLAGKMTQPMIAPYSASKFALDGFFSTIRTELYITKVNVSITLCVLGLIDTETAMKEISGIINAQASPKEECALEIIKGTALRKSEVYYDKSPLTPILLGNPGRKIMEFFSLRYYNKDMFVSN
Chain of Voltage-gated inwardly rectifying potassium channel KCNH2 (Q12809 whole entry): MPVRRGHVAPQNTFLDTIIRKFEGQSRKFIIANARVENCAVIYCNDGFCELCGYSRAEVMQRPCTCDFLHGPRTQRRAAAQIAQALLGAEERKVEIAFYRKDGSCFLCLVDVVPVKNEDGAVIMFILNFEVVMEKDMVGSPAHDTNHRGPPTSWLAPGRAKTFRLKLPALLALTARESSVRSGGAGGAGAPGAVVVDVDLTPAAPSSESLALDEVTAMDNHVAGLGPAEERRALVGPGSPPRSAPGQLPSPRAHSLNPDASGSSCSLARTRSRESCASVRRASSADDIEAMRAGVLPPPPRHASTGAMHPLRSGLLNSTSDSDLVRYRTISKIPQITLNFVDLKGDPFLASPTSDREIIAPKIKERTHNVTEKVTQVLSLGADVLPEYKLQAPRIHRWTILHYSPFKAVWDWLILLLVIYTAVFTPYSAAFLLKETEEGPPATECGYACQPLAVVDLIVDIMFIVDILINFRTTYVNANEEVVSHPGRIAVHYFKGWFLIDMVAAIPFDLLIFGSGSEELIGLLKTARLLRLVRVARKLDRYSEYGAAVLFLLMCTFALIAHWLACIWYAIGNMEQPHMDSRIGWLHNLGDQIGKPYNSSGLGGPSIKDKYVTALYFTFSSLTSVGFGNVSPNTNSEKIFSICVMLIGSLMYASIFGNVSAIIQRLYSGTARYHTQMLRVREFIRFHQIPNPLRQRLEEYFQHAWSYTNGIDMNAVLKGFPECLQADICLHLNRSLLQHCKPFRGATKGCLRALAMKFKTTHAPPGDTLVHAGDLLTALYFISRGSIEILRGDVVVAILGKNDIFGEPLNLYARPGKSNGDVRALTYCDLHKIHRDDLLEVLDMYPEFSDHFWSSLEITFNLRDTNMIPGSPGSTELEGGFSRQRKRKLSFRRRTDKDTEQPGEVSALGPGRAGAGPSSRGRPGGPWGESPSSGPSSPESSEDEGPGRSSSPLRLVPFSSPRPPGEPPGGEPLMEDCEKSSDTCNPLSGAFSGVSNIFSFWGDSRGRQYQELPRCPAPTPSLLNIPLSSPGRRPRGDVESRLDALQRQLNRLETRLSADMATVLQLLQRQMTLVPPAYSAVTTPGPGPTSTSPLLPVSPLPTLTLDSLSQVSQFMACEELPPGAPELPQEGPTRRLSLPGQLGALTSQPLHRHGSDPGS

Take `O=C(CN1C(C(=O)c2ccccc2)=C(O)c2ccccc2S1(=O)=O)c1ccccc1`: the inhibition in data set [1] amounted to 6%. In addition, the results for the half-life in data set [2] and in data set [7] were 5.5 h and 1.25 h, respectively. For the same compound, the values for the pIC50 in [3] and in [4] were 5.11 and < 4.00, respectively. In data set [5], this compound gave a Cmax of 1100 ng/mL. The bioavailability in [6] was 48.7%. Also, the CL in the data set filed under Rattus norvegicus turned out to be 6.7 mL/min/kg.

In [8], `O=C(CN1C(C(=O)c2ccccc2)=C(O)c2ccccc2S1(=O)=O)c1ccc(-c2ccccc2)cc1` showed a negative logarithm of the IC50 (pIC50) of 7.55.

In data set [8], `COC(=O)c1ccc(C(=O)CN2C(C(=O)c3ccccc3)=C(O)c3ccccc3S2(=O)=O)cc1` gave a pIC50 of 7.51.

For `O=C(O)c1ccc(C(=O)CN2C(C(=O)c3ccccc3)=C(O)c3ccccc3S2(=O)=O)cc1`, the pIC50 in data set [8] is 6.14.

`O=C(CN1C(C(=O)c2ccccc2)=C(O)c2ccccc2S1(=O)=O)c1ccc([N+](=O)[O-])cc1` gave a pIC50 in data set [8] of 7.52.

For the compound `N#Cc1ccc(C(=O)CN2C(C(=O)c3ccccc3)=C(O)c3ccccc3S2(=O)=O)cc1`, the results for the pIC50 in [3] and in [8] were 5.05 and 7.40, respectively.
